Measured values published in patent US20210070735A1, “RIP1 INHIBITORY COMPOUNDS AND METHODS FOR MAKING AND USING THE SAME” (Rigel Pharmaceuticals, Inc., priority 2019, published 2021).

Columns and labels:
RIPK1 = molecular target: T1, RIPK1 (Homo sapiens, UniProt Q13546); experiment: RIPK1 ADP-Glo biochemical kinase assay; conditions: 30 min at 30° C.
T1 sequence (Q13546 1-671): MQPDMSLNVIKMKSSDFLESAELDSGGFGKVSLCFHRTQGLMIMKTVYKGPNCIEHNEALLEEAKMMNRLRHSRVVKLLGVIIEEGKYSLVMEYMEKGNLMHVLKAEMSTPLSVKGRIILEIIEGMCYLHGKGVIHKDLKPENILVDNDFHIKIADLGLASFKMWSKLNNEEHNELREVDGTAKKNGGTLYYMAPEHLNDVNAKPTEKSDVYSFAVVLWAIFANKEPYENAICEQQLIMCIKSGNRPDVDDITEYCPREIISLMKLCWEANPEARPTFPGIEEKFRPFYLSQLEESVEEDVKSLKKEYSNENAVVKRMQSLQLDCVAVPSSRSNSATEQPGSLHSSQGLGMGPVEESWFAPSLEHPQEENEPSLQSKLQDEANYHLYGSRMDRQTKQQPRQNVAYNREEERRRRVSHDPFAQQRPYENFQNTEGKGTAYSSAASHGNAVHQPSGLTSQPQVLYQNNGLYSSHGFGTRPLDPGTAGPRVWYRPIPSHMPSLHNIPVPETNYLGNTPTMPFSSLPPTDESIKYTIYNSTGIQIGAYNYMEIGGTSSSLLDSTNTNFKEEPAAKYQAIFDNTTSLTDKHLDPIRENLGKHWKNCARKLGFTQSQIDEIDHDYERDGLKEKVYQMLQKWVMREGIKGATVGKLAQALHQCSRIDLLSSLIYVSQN
Method: The final reaction volume was 5.0 μl.
Adding 5 μl of ADP-Glo™ terminated the reaction.

murine RIP1 = molecular target: T2, murine RIP1 (Mus musculus, UniProt Q60855); experiment: L929 cell necroptosis assay (TNFa + zVAD, CellTiter-Glo); assay type: cell-based
T2 construct: U937 and L929 cells were obtained from the American Type Culture Collection; host or cells: L929
T2 sequence (Q60855 1-656): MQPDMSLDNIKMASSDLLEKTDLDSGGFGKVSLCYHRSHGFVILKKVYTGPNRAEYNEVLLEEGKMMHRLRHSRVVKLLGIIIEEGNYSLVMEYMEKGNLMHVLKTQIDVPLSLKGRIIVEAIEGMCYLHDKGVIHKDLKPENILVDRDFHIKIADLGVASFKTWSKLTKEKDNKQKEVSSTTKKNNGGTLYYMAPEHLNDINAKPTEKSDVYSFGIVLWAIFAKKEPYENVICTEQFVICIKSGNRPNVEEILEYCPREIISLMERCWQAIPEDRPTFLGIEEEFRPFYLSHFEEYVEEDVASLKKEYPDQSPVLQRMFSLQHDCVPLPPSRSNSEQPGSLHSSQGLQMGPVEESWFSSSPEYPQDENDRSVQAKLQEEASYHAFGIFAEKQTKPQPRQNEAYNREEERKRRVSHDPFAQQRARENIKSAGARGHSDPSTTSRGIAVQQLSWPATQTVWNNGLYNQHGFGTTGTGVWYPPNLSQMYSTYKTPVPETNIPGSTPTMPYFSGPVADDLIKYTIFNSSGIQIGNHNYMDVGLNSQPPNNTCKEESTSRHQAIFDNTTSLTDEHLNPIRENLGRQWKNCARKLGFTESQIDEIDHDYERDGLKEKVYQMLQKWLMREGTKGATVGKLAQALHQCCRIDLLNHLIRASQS
Method: (§1) In this example, U937 and L929 cells were exposed to compounds of the present disclosure and a cell necroptosis assay was conducted to evaluate the compounds' activity against human RIP1 and murine RIP1.
(§2) U937 and L929 cells were obtained from the American Type Culture Collection (Manassa, Va., USA). Both cells were maintained in logarithmic growth phase in complete RPMI 1640 media (Sigma, ST Louis, Mo., USA) supplemented with 10% fetal bovine serum (Sigma, ST Louis, Mo., USA) at 37° C. with 5% CO2. For necroptosis assay, L929 cells were plated for 18 h in 100 µL/well medium at 10K cells/well in Costar 96-well black clear-bottom plates (Fisher Scientific, Hampton, N.H., USA); U937 cells were plated on the day of the assay in 50 µL/well medium containing 60 uM zVAD-fmk (Lonza, Basel, Switzerland) at 50K cells/well. Medium from L929 cells were removed from the 96-well plates and replaced with 50 µL/well new medium containing 40 uM zVAD-fmk. Each compound of the present disclosure evaluated in this example was serially diluted in DMSO from 2.5 mM in 4-fold dilutions, and then diluted 1:125 in complete medium. 50 µL/well 2× of the compound was then added to the cells in the plates. The cells were pre-incubated with the compound for 1 hour at 37° C. with 5% CO2 and before addition of 10 µL/well 11×TNFa (Peprotech, Rocky Hill, N.J., USA) to give a final concentration of 2 ng/mL for TNFa. The relative amount of necroptosis cells was determined by luminescent using a Wallac Victor2 Luminometer (PerkinElmer, Waltham, Mass., USA) and a CellTiter-Glo® Luminescent Cell Viability Reagent Assay (Promega, Madison, Wis., USA) added per manufacturer instructions after 18 hours of TNFa stimulation at 37° C. with 5% CO2.Results from this example are summarized in Table 2. This example establishes that embodiments of the compounds described herein have unexpectedly potent activity against human RIP1 and murine RIP1, which allows their assessment in in vivo mouse models of disease.

human RIP1 = molecular target: T3, human RIP1 (Homo sapiens, UniProt Q13546); experiment: U937 cell necroptosis assay (TNFa + zVAD, CellTiter-Glo); assay type: cell-based; conditions: U937 Zvad TNF CTG Recovery, U937 cells, TNFa 2 ng/mL + zVAD-fmk, 18 hours
T3 construct: U937 and L929 cells were obtained from the American Type Culture Collection; host or cells: U937
T3 sequence (Q13546 1-671): T1 sequence (Q13546 1-671)
Method: as §1, §2

Row | Compound | IC50 (RIPK1) [nM] | IC50 (murine RIP1) [nM] | IC50 (human RIP1) [nM]
1 | CN1C(=O)C(NC(=O)c2n[nH]c(Cc3ccccc3)n2)CCc2ccc(C#CC3(O)COC3)cc21 (racemic) [Compound I-16, (±)-5-Benzyl-N-(8-((3-hydroxyoxetan-3-yl)ethynyl)-1-methyl-2-oxo-2,3,4,5-tetrahydro-1H-benzo[b]azepin-3-yl)-1H-1,2,4-triazole-3-carboxamide] | 229 | 150 | 8.4
2 | CN1C(=O)C(NC(=O)c2n[nH]c(Cc3ccccc3)n2)CCc2ccc(C#Cc3ccncc3)cc21 (racemic) [Compound I-19, (±)-5-Benzyl-N-(1-methyl-2-oxo-8-(pyridin-4-ylethynyl)-2,3,4,5-tetrahydro-1H-benzo[b]azepin-3-yl)-1H-1,2,4-triazole-3-carboxamide] | 42.7 | 10 | 3.4
3 | CN1C(=O)C(NC(=O)c2n[nH]c(Cc3ccccc3)n2)CCc2ccc(C#Cc3ccccn3)cc21 (racemic) [Compound I-20, (±)-5-Benzyl-N-(1-methyl-2-oxo-8-(pyridin-2-ylethynyl)-2,3,4,5-tetrahydro-1H-benzo[b]azepin-3-yl)-1H-1,2,4-triazole-3-carboxamide] | 37 | 8.5 | 3.8
4 | CN1C(=O)C(NC(=O)n2cc(Cc3ccccc3)cn2)CCc2ccc(N3CC4(CCOCC4)C3)cc21 (racemic) [Compound I-23, (±)-4-Benzyl-N-(1-methyl-2-oxo-8-(7-oxa-2-azaspiro[3.5]nonan-2-yl)-2,3,4,5-tetrahydro-1H-benzo[b]azepin-3-yl)-1H-pyrazole-1-carboxamide] | 61.2 | 212 | 1.7
5 | CN1C(=O)C(NC(=O)c2cc(Oc3ccccc3)ccn2)CCc2ccc(C#CC(C)(C)O)cc21 (racemic) [Compound I-24, (±)-N-(8-(3-Hydroxy-3-methylbut-1-yn-1-yl)-1-methyl-2-oxo-2,3,4,5-tetrahydro-1H-benzo[b]azepin-3-yl)-4-phenoxypicolinamide] | 58.1 | 13 | 1.9
6 | CN1C(=O)C(NC(=O)c2cc(Oc3ccccc3)ccn2)CCc2ccc(CN3CCN(c4ccncc4)CC3)cc21 (racemic) [Compound I-25, (±)-N-(1-Methyl-2-oxo-8-((4-(pyridin-4-yl)piperazin-1-yl)methyl)-2,3,4,5-tetrahydro-1H-benzo[b]azepin-3-yl)-4-phenoxypicolinamide] | 68.9 | 37100 | 278
7 | CN1C(=O)C(NC(=O)c2cc(Oc3ccccc3)ccn2)CCc2ccc(N3CCC4(CCOCC4)CC3)cc21 (racemic) [Compound I-27, (±)-N-(1-Methyl-2-oxo-8-(3-oxa-9-azaspiro[5.5]undecan-9-yl)-2,3,4,5-tetrahydro-1H-benzo[b]azepin-3-yl)-4-phenoxypicolinamide] | 46.4 | 641 | 4.8
8 | [2H]C([2H])([2H])N1C(=O)C(NC(=O)c2cc(Oc3ccccc3)ccn2)CCc2ccc(C#CC(C)(C)O)cc21 (racemic) [Compound I-28, (±)-N-(8-(3-Hydroxy-3-methylbut-1-yn-1-yl)-1-(methyl-d)-2-oxo-2,3,4,5-tetrahydro-1H-benzo[b]azepin-3-yl)-4-phenoxypicolinamide] | 32.2 | 20.9 | 2.4
9 | [2H]C([2H])([2H])N1C(=O)C(NC(=O)c2cc(Oc3ccccc3)ccn2)CCc2ccc(N3CC4(CCOCC4)C3)cc21 (racemic) [Compound I-29, (±)-N-(1-(Methyl-d3)-2-oxo-8-(7-oxa-2-azaspiro[3.5]nonan-2-yl)-2,3,4,5-tetrahydro-1H-benzo[b]azepin-3-yl)-4-phenoxypicolinamide] | 41.3 | 1420 | 6.3
10 | CN1C(=O)C(NC(=O)c2cc(Oc3ccccc3)ccn2)CCc2ccc(N3CC4(CCCCC4)C3)cc21 (racemic) [Compound I-30, (±)-N-(1-Methyl-2-oxo-8-(2-azaspiro[3.5]nonan-2-yl)-2,3,4,5-tetrahydro-1H-benzo[b]azepin-3-yl)-4-phenoxypicolinamide] | 603 | 1170 | 16.2
11 | CN1C(=O)C(NC(=O)c2cc(Oc3ccccc3)ccn2)CCc2ccc(N3CC4(CCOCC4)C3)cc21 (racemic) [Compound I-31, (±)-N-(1-Methyl-2-oxo-8-(7-oxa-2-azaspiro[3.5]nonan-2-yl)-2,3,4,5-tetrahydro-1H-benzo[b]azepin-3-yl)-4-phenoxypicolinamide] | 54 | 1680 | 17.6
12 | CN1C(=O)[C@@H](NC(=O)n2cc(Cc3ccc(F)cc3)cn2)CCc2ccc(C#CC3(O)COC3)cc21 [Compound I-1, (S)-4-(4-fluorobenzyl)-N-(8-((3-hydroxyoxetan-3-yl)ethynyl)-1-methyl-2-oxo-2,3,4,5-tetrahydro-1H-benzo[b]azepin-3-yl)-1H-pyrazole-1-carboxamide] | 23.4 | 2.4 | 0.3
13 | CN1C(=O)[C@@H](NC(=O)c2cc(Oc3ccccc3)ccn2)CCc2ccc(-c3ccc(C#CC(C)(C)O)nc3)cc21 [Compound I-2, (S)—N-(8-(6-(3-hydroxy-3-methylbut-1-yn-1-yl)pyridin-3-yl)-1-methyl-2-oxo-2,3,4,5-tetrahydro-1H-benzo[b]azepin-3-yl)-4-phenoxypicolinamide] | 33.4 | 142 | 2
14 | CN1C(=O)[C@@H](NC(=O)c2n[nH]c(Cc3ccccc3)n2)CCc2ccc(C#CC(C)(C)O)cc21 [Compound I-10, (S)-5-Benzyl-N-(8-(3-hydroxy-3-methylbut-1-yn-1-yl)-1-methyl-2-oxo-2,3,4,5-tetrahydro-1H-benzo[b]azepin-3-yl)-1H-1,2,4-triazole-3-carboxamide] | 39.2 | 37.8 | 1.7
15 | CN1C(=O)[C@@H](NC(=O)c2n[nH]c(Cc3ccccc3)n2)CCc2ccc(N3CC4(CCOCC4)C3)cc21 [Compound I-17, (S)-5-Benzyl-N-(1-methyl-2-oxo-8-(7-oxa-2-azaspiro[3.5]nonan-2-yl)-2,3,4,5-tetrahydro-1H-benzo[b]azepin-3-yl)-1H-1,2,4-triazole-3-carboxamide] | 36.6 | 229 | 3.9
